Several values for one entry are separate records, joined by “and”; a condition that tells them apart may be missing. Equal entries are not always repeated. Each block holds one compound with its values, some of them ahead of it.
Tested on: 328373-195-R-J1-PDC complex spheroids, viability % test/control
Assay: Anticancer human tumor 328373-195-R-J1-PDC patient-derived head and neck squamous carcinoma cell line growth inhibition [CLK]
Conditions: for viability, T/C: stronger effect = lower value
Excerpt: A high-throughput screen of multi-cell type tumor spheroids was designed to identify active combinations of […] and targeted small molecules. Complex spheroids include a stromal component modeled by human endothelial cells (HUVEC) and fibroblasts modeled by human mesenchymal stem cells (MSCs). The concentration ranges selected for each drug and investigational agent were based upon clinically achievable concentrations if the clinical Cmax of the agent was known.
Compounds. The drugs and investigational agents: cirtuvivint (SM08502; NSC835563), CC-671 (NSC850746), vemurafenib (NSC761431), tapotoclax (NSC804041), sotorasib (NSC818433), adagrasib (NSC831453), MRTX-1133 (NSC836407), BAY2416964 (NSC825713), copanlisib (NSC816437), inavolisib (NSC800729), abemaciclib (NSC768073), osimertinib (NSC779217), entinostat (NSC756642), eltanexor (KPT-8602, NSC794443), venetoclax (NSC766270), ceralasertib (NSC777638), bortezomib (NSC756655), olaparib (NSC753686), talazoparib (NSC767125), alisertib (NSC759677), peposertib (NSC802822), gemcitabine (NSC613327), 5-fluorouracil (NSC19893), SN-38 (NSC673596), oxaliplatin (NSC266046), paclitaxel (NSC125973), and doxorubicin (NSC123127), were obtained from the National Cancer Institute (NCI) Developmental Therapeutics Program Chemical Repository. The FDA-approved anticancer drug set is available from the Developmental Therapeutics Program at https://dtp.cancer.gov/organization/dscb/obtaining/available plates.htm. […] The stock solutions were prepared in dimethyl sulfoxide (DMSO, Sigma-Aldrich, St. Louis, MO, cat. D2650), except for the platinum complexes which were prepared in saline (Quality Biological, Gaithersburg, MD, cat. 114-055-101), at 800-fold the tested concentration and stored at -70 degrees C prior to their use. All drugs and investigational agents were tested over a range starting from a high concentration at or near the clinical Cmax and decreasing in half-log increments. If the clinical Cmax for an agent had not been determined, the highest concentration tested was 10 microM.
Cell Culture. All cells were maintained in an incubator at 37 degrees C and 5% CO2 with 95% humidity. The PDC lines were cultured according to standard operating procedures established by the NCI PDMR. Briefly, all PDCs were thawed and cultured in Matrigel-coated flasks prepared with a working solution of 1X Ham's F-12 nutrient mix, without supplementation (Invitrogen, Waltham, MA, cat. 11765054), 100 U/mL penicillin-streptomycin (Invitrogen, cat. 15140122), and 2.5% Matrigel (Corning Inc., Corning, NY, cat. 354248) for the first three passages. The 947758-054-R-J2-PDC line was cultured in 6B/Colon 1A media, which includes advanced DMEM/F-12 (Thermo Fisher Scientific, cat. 12634028), 10 mM HEPES (Thermo Fisher Scientific, cat. 15630080), 1X GlutaMAX supplement (Thermo Fisher Scientific, cat. 35050061), 0.1 mg/mL primocin (InvivoGen, cat. ant-pm-2), 10% defined fetal bovine serum, heat inactivated (HyClone Laboratories Inc., cat. SH30070.03HI), 1.25 mM N-Acetyl-L-cysteine (Sigma-Aldrich, cat. A9165), 10 mM nicotinamide (Sigma-Aldrich, cat. N0636), 1X B-27 supplement (Thermo Fisher Scientific, cat. 17504044), 1X N-2 supplement (Thermo Fisher Scientific, cat. 17502048), and 10 microM Y-27632 dihydrochloride (Tocris Bioscience, cat. 1254). The 876862-298-R-J1-PDC was cultured in 6E media, which includes all 6B/Colon 1A media components plus 50% L-WRN conditioned media (ATCC, cat. CRL-3276), 50 ng/mL recombinant human EGF recombinant protein (hEGF; Thermo Fisher Scientific, cat. PHG0311), 10 ng/mL recombinant human fibroblast growth factor 10 (hGFG-10; PeproTech, cat. 100-26), 1 ng/mL recombinant human fibroblast growth factor 2 (hFGF-2; PeproTech, cat. 100-18B), and 1 µM prostaglandin E2 (PGE2; Tocris, cat. 2296). The 227483-062-R1-J1-PDC line was cultured in Panc media, containing all 6E components except hFGF-2, with the addition of 500 nM SB-431542 (Selleckchem, cat. S1067) and 10 nM gastrin (Tocris, cat. 3006). […]
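Further: spheroids exposed to the agents for 7 days.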

IC50 (curve of compound): > 1000 nM
SMILES: CCN1CCN(Cc2ccc(Nc3ncc(F)c(-c4cc(F)c5nc(C)n(C(C)C)c5c4)n3)nc2)CC1
viability, T/C (compound 0.00316 µM): 101% and 89.8% | viability, T/C (compound 0.01 µM): 77.4% and 78.7% | viability, T/C (compound 0.0316 µM): 82.7% and 83.1% | viability, T/C (compound 0.1 µM): 77.4% and 78.6% | viability, T/C (compound 0.316 µM): 64.9% and 69.7% | viability, T/C (compound 1 µM): 59.8% and 52.3%

IC50 (curve of compound): < 3.16 nM
SMILES: CCc1c2c(nc3ccc(O)cc13)-c1cc3c(c(=O)n1C2)COC(=O)[C@]3(O)CC
viability, T/C (compound 0.00316 µM): 12.7% and 12.1% | viability, T/C (compound 0.01 µM): 3.27% and 1.07% | viability, T/C (compound 0.0316 µM): 1.41% and 1.91% | viability, T/C (compound 0.1 µM): 3.19% and 1.33% | viability, T/C (compound 0.316 µM): 1.53% and 0.43% | viability, T/C (compound 1 µM): 2.07% and 1.46%

IC50 (compound alone, run of 08/14/2023): 209 nM [middle of 12 runs]
SMILES: CN1CCN(c2cc(C(=O)Nc3cc4cc(-c5cnn(C)c5)ccc4cn3)ccn2)CC1
viability, T/C (compound 0.0316 µM): 102% [middle of 12 runs] | viability, T/C (compound 0.1 µM): 87.1% [middle of 12 runs] | viability, T/C (compound 0.316 µM): 30.6% [middle of 12 runs] | viability, T/C (compound 1 µM): 2.6% [middle of 12 runs] | viability, T/C (compound 3.16 µM): 1.02% [middle of 12 runs] | viability, T/C (compound 10 µM): 0.18% [middle of 11 runs]

IC50 (curve of compound): 8470 nM and 4400 nM
SMILES: COC1C=CCC(C)C(C)S(=O)(=O)NC(=O)c2ccc3c(c2)N(CC2CCC21)CC1(CCCc2cc(Cl)ccc21)CO3 (stereo unspecified)
viability, T/C (compound 0.0316 µM): 93.3% and 98.1% | viability, T/C (compound 0.1 µM): 90.6% and 96.7% | viability, T/C (compound 0.316 µM): 101% and 103% | viability, T/C (compound 1 µM): 96.7% and 93.2% | viability, T/C (compound 3.16 µM): 77.2% and 69.3%

IC50 (curve of compound): 80.1 nM and 152 nM
SMILES: COc1c(OCCCN2CCOCC2)ccc2c3n(c(=NC(=O)c4cnc(N)nc4)nc12)CCN3
viability, T/C (compound 0.00316 µM): 98.7% and 88.6% | viability, T/C (compound 0.01 µM): 87.2% and 84.5% | viability, T/C (compound 0.0316 µM): 64.5% and 74.9% | viability, T/C (compound 0.1 µM): 51.9% and 66.5% | viability, T/C (compound 0.316 µM): 19.2% and 24.7% | viability, T/C (compound 1 µM): 10.7% and 7.66%

IC50 (curve of compound): > 100 nM
SMILES: Cn1ncnc1[C@H]1c2n[nH]c(=O)c3cc(F)cc(c23)N[C@@H]1c1ccc(F)cc1
viability, T/C (compound 0.000316 µM): 98.5% and 113% | viability, T/C (compound 0.001 µM): 72.2% and 90.1% | viability, T/C (compound 0.00316 µM): 90.6% and 93.4% | viability, T/C (compound 0.01 µM): 84.6% and 92.9% | viability, T/C (compound 0.0316 µM): 95.3% and 107% | viability, T/C (compound 0.1 µM): 73% and 77.7%

IC50 (curve of compound): 21.1 nM and 19.8 nM
SMILES: NC(=O)C(=Cn1cnc(-c2cc(C(F)(F)F)cc(C(F)(F)F)c2)n1)c1cncnc1
viability, T/C (compound 0.00949 µM): 76.3% and 71.8% | viability, T/C (compound 0.03 µM): 38.3% and 37.8% | viability, T/C (compound 0.0949 µM): 2.22% and 0.66% | viability, T/C (compound 0.3 µM): 1.05% and 0.37% | viability, T/C (compound 0.949 µM): 0.16% and 0.11% | viability, T/C (compound 3 µM): 1.51% and 0.06%

IC50 (curve of compound): 515 nM and 299 nM
SMILES: Nc1ccccc1NC(=O)c1ccc(CNC(=O)OCc2cccnc2)cc1
viability, T/C (compound 0.0316 µM): 87.1% and 84.6% | viability, T/C (compound 0.1 µM): 71.8% and 68.4% | viability, T/C (compound 0.316 µM): 54.6% and 49.4% | viability, T/C (compound 1 µM): 38.6% and 28.9% | viability, T/C (compound 3.16 µM): 31.2% and 21.1% | viability, T/C (compound 10 µM): 7.32% and 4.87%

IC50 (curve of compound): < 31.6 nM
SMILES: Nc1ccn(C2OC(CO)C(O)C2(F)F)c(=O)n1 (stereo unspecified)
viability, T/C (compound 0.0316 µM): 4.83% and 1.9% | viability, T/C (compound 0.1 µM): 2.69% and 2.98% | viability, T/C (compound 0.316 µM): 2.89% and 2.37% | viability, T/C (compound 1 µM): 2.8% and 3.02% | viability, T/C (compound 3.16 µM): 2.26% and 2.69% | viability, T/C (compound 10 µM): 2.3% and 1.66%

IC50 (curve of compound): > 10000 nM
SMILES: O=C(c1cc(Cc2n[nH]c(=O)c3ccccc23)ccc1F)N1CCN(C(=O)C2CC2)CC1
viability, T/C (compound 0.0316 µM): 99.6% and 98.6% | viability, T/C (compound 0.1 µM): 94.2% and 88% | viability, T/C (compound 0.316 µM): 91.3% and 90.8% | viability, T/C (compound 1 µM): 87.9% and 100% | viability, T/C (compound 3.16 µM): 93.2% and 101% | viability, T/C (compound 10 µM): 73.2% and 66.8%

IC50 (curve of compound): 35.6 nM and 44.9 nM
SMILES: O=c1[nH]cc(F)c(=O)[nH]1
viability, T/C (compound 0.0316 µM): 54% and 64.5% | viability, T/C (compound 0.1 µM): 14.5% and 17.4% | viability, T/C (compound 0.316 µM): 11.9% and 9.36% | viability, T/C (compound 1 µM): 6.67% and 7.09% | viability, T/C (compound 3.16 µM): 8.84% and 8.77% | viability, T/C (compound 10 µM): 14.9% and 15.6%

Reference: PubChem BioAssay AID2060620 (Molecular Pharmacology Branch, DTP, NCI, 2025)
